Assays:
[1] = tested on: barnyard grass; test: Test Example 3: herbicidal effect by foliage application, Wagner pot (Table 18, symbol H); type: in vivo, barnyard grass (Echinochloa crus-galli); details: amount of applied herbicide 320 g/ha
Procedure, shortened: (§1)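 Plants were sown in alluvial soil held under 0.1–0.5 cm standing water and grown 14 days in a greenhouse at 25–30 °C. An emulsifiable formulation, water-diluted to the set dose, was then sprayed onto the foliage, and effects were scored three weeks later using previously defined criteria.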

[2] = tested on: Chinese sprangletop; test: Test Example 3: herbicidal effect by foliage application, Wagner pot (Table 18, symbol D); type: in vivo, chinese sprangletop (Leptochloa chinensis); details: amount of applied herbicide 320 g/ha
Procedure, shortened: as §1

[3] = tested on: rice flat sedge; test: Test Example 3: herbicidal effect by foliage application, Wagner pot (Table 18, symbol E); type: in vivo, rice flat sedge (Cyperus iria); details: amount of applied herbicide 320 g/ha
Procedure, shortened: as §1

[4] = tested on: southern crabgrass; test: Test Example 4: herbicidal effect by soil treatment (Table 19, symbol F); type: in vivo, southern crabgrass (Digitaria ciliaris); details: amount of applied herbicide 320 g/ha
Procedure, shortened: (§2)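 Three weeks of greenhouse growth at 25° C. to 30° C. followed a uniform surface spray of water-diluted emulsion at a predetermined herbicide amount. Seeds had been sown beforehand under about 1.5 cm of sterilized diluvial soil. Grading followed criteria set out in an earlier test.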

[5] = tested on: green foxtail; test: Test Example 4: herbicidal effect by soil treatment (Table 19, symbol G); type: in vivo, green foxtail (Setaria viridis); details: amount of applied herbicide 320 g/ha
Procedure, shortened: as §2

[6] = tested on: barnyard grass; test: Test Example 4: herbicidal effect by soil treatment (Table 19, symbol H); type: in vivo, barnyard grass (Echinochloa crus-galli); details: amount of applied herbicide 320 g/ha
Procedure, shortened: as §2

[7] = tested on: wild oat; test: Test Example 4: herbicidal effect by soil treatment (Table 19, symbol I); type: in vivo, wild oat (Avena fatua); details: amount of applied herbicide 320 g/ha
Procedure, shortened: as §2

[8] = tested on: blackgrass; test: Test Example 4: herbicidal effect by soil treatment (Table 19, symbol J); type: in vivo, blackgrass (Alopecurus myosuroides); details: amount of applied herbicide 320 g/ha
Procedure, shortened: as §2

[9] = tested on: Italian ryegrass; test: Test Example 4: herbicidal effect by soil treatment (Table 19, symbol K); type: in vivo, Italian ryegrass (Lolium multiflorum); details: amount of applied herbicide 320 g/ha
Procedure, shortened: as §2

[10] = tested on: windgrass; test: Test Example 4: herbicidal effect by soil treatment (Table 19, symbol L); type: in vivo, windgrass (Apera spica-venti); details: amount of applied herbicide 320 g/ha
Procedure, shortened: as §2

[11] = tested on: velvetleaf; test: Test Example 4: herbicidal effect by soil treatment (Table 19, symbol M); type: in vivo, velvetleaf (Abutilon theophrasti); details: amount of applied herbicide 320 g/ha
Procedure, shortened: as §2

[12] = tested on: redroot pigweed; test: Test Example 4: herbicidal effect by soil treatment (Table 19, symbol N); type: in vivo, redroot pigweed (Amaranthus retroflexus); details: amount of applied herbicide 320 g/ha
Procedure, shortened: as §2

[13] = tested on: lambsquarters; test: Test Example 4: herbicidal effect by soil treatment (Table 19, symbol O); type: in vivo, lambsquarters (Chenopodium album); details: amount of applied herbicide 320 g/ha
Procedure, shortened: as §2

[14] = tested on: chickweed; test: Test Example 4: herbicidal effect by soil treatment (Table 19, symbol P); type: in vivo, common chickweed (Stellaria media); details: amount of applied herbicide 320 g/ha
Procedure, shortened: as §2

[15] = tested on: persian speedwell; test: Test Example 4: herbicidal effect by soil treatment (Table 19, symbol R); type: in vivo, Persian speedwell (Veronica persica); details: amount of applied herbicide 320 g/ha
Procedure, shortened: as §2

[16] = tested on: southern crabgrass; test: Test Example 5: herbicidal effect by foliage application, plastic box (Table 20, symbol F); type: in vivo, southern crabgrass (Digitaria ciliaris); details: foliage application, 320 g/ha, evaluated three weeks after application
Procedure, shortened: (§3)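 Plants sown in sterilized diluvial soil and grown 14 days in a greenhouse at 25° C to 30° C, then sprayed on the foliage with the compound's emulsion diluted in water to a predetermined herbicide amount. Injury to weeds and crops scored three weeks after application on a visual rating scale.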

[17] = tested on: green foxtail; test: Test Example 5: herbicidal effect by foliage application, plastic box (Table 20, symbol G); type: in vivo, green foxtail (Setaria viridis); details: foliage application, 320 g/ha, evaluated three weeks after application
Procedure, shortened: as §3

[18] = tested on: barnyard grass; test: Test Example 5: herbicidal effect by foliage application, plastic box (Table 20, symbol H); type: in vivo, barnyard grass (Echinochloa crus-galli); details: foliage application, 320 g/ha, evaluated three weeks after application
Procedure, shortened: as §3

[19] = tested on: wild oat; test: Test Example 5: herbicidal effect by foliage application, plastic box (Table 20, symbol I); type: in vivo, wild oat (Avena fatua); details: foliage application, 320 g/ha, evaluated three weeks after application
Procedure, shortened: as §3

[20] = tested on: blackgrass; test: Test Example 5: herbicidal effect by foliage application, plastic box (Table 20, symbol J); type: in vivo, blackgrass (Alopecurus myosuroides); details: foliage application, 320 g/ha, evaluated three weeks after application
Procedure, shortened: as §3

[21] = tested on: Italian ryegrass; test: Test Example 5: herbicidal effect by foliage application, plastic box (Table 20, symbol K); type: in vivo, Italian ryegrass (Lolium multiflorum); details: foliage application, 320 g/ha, evaluated three weeks after application
Procedure, shortened: as §3

[22] = tested on: velvetleaf; test: Test Example 5: herbicidal effect by foliage application, plastic box (Table 20, symbol M); type: in vivo, velvetleaf (Abutilon theophrasti); details: foliage application, 320 g/ha, evaluated three weeks after application
Procedure, shortened: as §3

[23] = tested on: redroot pigweed; test: Test Example 5: herbicidal effect by foliage application, plastic box (Table 20, symbol N); type: in vivo, redroot pigweed (Amaranthus retroflexus); details: foliage application, 320 g/ha, evaluated three weeks after application
Procedure, shortened: as §3

[24] = tested on: lambsquarters; test: Test Example 5: herbicidal effect by foliage application, plastic box (Table 20, symbol O); type: in vivo, lambsquarters (Chenopodium album); details: foliage application, 320 g/ha, evaluated three weeks after application
Procedure, shortened: as §3

[25] = tested on: chickweed; test: Test Example 5: herbicidal effect by foliage application, plastic box (Table 20, symbol P); type: in vivo, common chickweed (Stellaria media); details: foliage application, 320 g/ha, evaluated three weeks after application
Procedure, shortened: as §3

[26] = tested on: persian speedwell; test: Test Example 5: herbicidal effect by foliage application, plastic box (Table 20, symbol R); type: in vivo, Persian speedwell (Veronica persica); details: foliage application, 320 g/ha, evaluated three weeks after application
Procedure, shortened: as §3

Q: How did the “herbicidal effect on H: barnyard grass” value [1] turn out when `COc1cccc(-c2sc3ccc(F)cc3c2-c2c(O)c(C)nn(C)c2=O)c1` [2-209] was run?
A: 5 (Herbicidal rate of 90% or more (almost completely withered))

Q: What about the “herbicidal effect on D: Chinese sprangletop” value [2] of the same compound?
A: 4 (Herbicidal rate of 70% or more and less than 90%)

Q: And the “herbicidal effect on E: rice flat sedge” value [3]?
A: 5 (Herbicidal rate of 90% or more (almost completely withered))

Q: And the “F: southern crabgrass, herbicidal effect rating” value [4]?
A: 5 (Herbicidal rate of 90% or more (almost completely withered))

Q: And the “G: green foxtail, herbicidal effect rating” value [5]?
A: 5 (Herbicidal rate of 90% or more (almost completely withered))

Q: And the “H: barnyard grass, herbicidal effect rating” value [6]?
A: 4 (Herbicidal rate of 70% or more and less than 90%)

Q: What about the “I: wild oat, herbicidal effect rating” value [7] of the same compound?
A: 0 (Herbicidal rate of 5% or less (almost no effect))

Q: What about the “J: blackgrass, herbicidal effect rating” value [8] of the same compound?
A: 0 (Herbicidal rate of 5% or less (almost no effect))

Q: What about the “K: Italian ryegrass, herbicidal effect rating” value [9] of the same compound?
A: 2 (Herbicidal rate of 20% or more and less than 40%)

Q: And the “L: windgrass, herbicidal effect rating” value [10]?
A: 0 (Herbicidal rate of 5% or less (almost no effect))

Q: And the “M: velvetleaf, herbicidal effect rating” value [11]?
A: 2 (Herbicidal rate of 20% or more and less than 40%)

Q: What about the “N: redroot pigweed, herbicidal effect rating” value [12] of the same compound?
A: 4 (Herbicidal rate of 70% or more and less than 90%)

Q: What about the “O: lambsquarters, herbicidal effect rating” value [13] of the same compound?
A: 5 (Herbicidal rate of 90% or more (almost completely withered))

Q: And the “P: chickweed, herbicidal effect rating” value [14]?
A: 4 (Herbicidal rate of 70% or more and less than 90%)

Q: What about the “R: persian speedwell, herbicidal effect rating” value [15] of the same compound?
A: 1 (Herbicidal rate of 5% or more and less than 20%)

Q: What about the “herbicidal effect on F: southern crabgrass (criteria 0-5)” value [16] of the same compound?
A: 5 (Herbicidal rate of 90% or more (almost completely withered))

Q: What about the “herbicidal effect on G: green foxtail (criteria 0-5)” value [17] of the same compound?
A: 5 (Herbicidal rate of 90% or more (almost completely withered))

Q: And the “herbicidal effect on H: barnyard grass (criteria 0-5)” value [18]?
A: 5 (Herbicidal rate of 90% or more (almost completely withered))

Q: And the “herbicidal effect on I: wild oat (criteria 0-5)” value [19]?
A: 0 (Herbicidal rate of 5% or less (almost no effect))

Q: And the “herbicidal effect on J: blackgrass (criteria 0-5)” value [20]?
A: 4 (Herbicidal rate of 70% or more and less than 90%)

Q: What about the “herbicidal effect on K: Italian ryegrass (criteria 0-5)” value [21] of the same compound?
A: 4 (Herbicidal rate of 70% or more and less than 90%)

Q: What about the “herbicidal effect on M: velvetleaf (criteria 0-5)” value [22] of the same compound?
A: 4 (Herbicidal rate of 70% or more and less than 90%)

Q: And the “herbicidal effect on N: redroot pigweed (criteria 0-5)” value [23]?
A: 5 (Herbicidal rate of 90% or more (almost completely withered))

Q: What about the “herbicidal effect on O: lambsquarters (criteria 0-5)” value [24] of the same compound?
A: 4 (Herbicidal rate of 70% or more and less than 90%)

Q: And the “herbicidal effect on P: chickweed (criteria 0-5)” value [25]?
A: 5 (Herbicidal rate of 90% or more (almost completely withered))

Q: And the “herbicidal effect on R: persian speedwell (criteria 0-5)” value [26]?
A: 5 (Herbicidal rate of 90% or more (almost completely withered))

Source: US20230085307A1, “PYRIDAZINONE COMPOUND AND HERBICIDE” (NISSAN CHEMICAL CORPORATION, priority 2019, published 2023)
